The text below walks through data of patent US6245521A, “Assay for evaluating the affinity of compounds to the glutamate GluR5 receptor” (Eli Lilly and Company, priority 1999, dated 2001).

Assay [1] concerns the target T1, human GluR2 (Homo sapiens, UniProt P42262).
T1 construct: expressed in transfected cells; host or cells: HEK293
As to the kind of experiment: ATPA selectivity profile in binding studies, displacement of 3[H] AMPA. The settings on record: HEK293 cells stably transfected with human GluR2. The protocol:
(§1) Activity of compounds acting at the kainate receptor, GluR5, can be determined by radiolabeled ligand binding studies at the cloned and expressed human GluR5 receptor (Korczak et al., 1994, Recept. Channels 3; 41-49), and by whole cell voltage clamp electrophysiological recordings of currents in acutely isolated rat dorsal root ganglion neurons (Bleakman et al., 1996, Mol. Pharmacol. 49; 581-585). The selectivity of compounds acting at GluR5 receptors is determined by measurement of activity at other AMPA and kainate receptors including receptor-ligand binding studies and whole-cell voltage clamp electrophysiological recordings of functional activity at human GluR1-GluR4 receptors (Fletcher et al., 1995, Recept. Channels 3; 21-31), at human GluR6 receptors (Hoo et al., Recept. Channels 2;327-338), at AMPA receptors in acutely isolated cerebellar Purkinje neurons (Bleakman et al., 1996, Mol. Pharmacol. 49; 581-585), and other tissues expressing AMPA receptors (Fletcher and Lodge, 1996, Pharmacol. Ther. 70; 65-89).
(§2) Cell lines (HEK293 cells) stably transfected with human GluR receptors were employed. Displacement of ^3 [H] AMPA by increasing concentrations of ATPA was used on GluR1-4-expressing cells and ^3 [H] kainate (KA) on GluR5, 6, 7 KA2-expressing cells.

Assay [2] deals with T2, human GluR4 (Homo sapiens, UniProt P48058).
T2 construct: expressed in transfected cells; host or cells: HEK293
T2 sequence (P48058 21-902): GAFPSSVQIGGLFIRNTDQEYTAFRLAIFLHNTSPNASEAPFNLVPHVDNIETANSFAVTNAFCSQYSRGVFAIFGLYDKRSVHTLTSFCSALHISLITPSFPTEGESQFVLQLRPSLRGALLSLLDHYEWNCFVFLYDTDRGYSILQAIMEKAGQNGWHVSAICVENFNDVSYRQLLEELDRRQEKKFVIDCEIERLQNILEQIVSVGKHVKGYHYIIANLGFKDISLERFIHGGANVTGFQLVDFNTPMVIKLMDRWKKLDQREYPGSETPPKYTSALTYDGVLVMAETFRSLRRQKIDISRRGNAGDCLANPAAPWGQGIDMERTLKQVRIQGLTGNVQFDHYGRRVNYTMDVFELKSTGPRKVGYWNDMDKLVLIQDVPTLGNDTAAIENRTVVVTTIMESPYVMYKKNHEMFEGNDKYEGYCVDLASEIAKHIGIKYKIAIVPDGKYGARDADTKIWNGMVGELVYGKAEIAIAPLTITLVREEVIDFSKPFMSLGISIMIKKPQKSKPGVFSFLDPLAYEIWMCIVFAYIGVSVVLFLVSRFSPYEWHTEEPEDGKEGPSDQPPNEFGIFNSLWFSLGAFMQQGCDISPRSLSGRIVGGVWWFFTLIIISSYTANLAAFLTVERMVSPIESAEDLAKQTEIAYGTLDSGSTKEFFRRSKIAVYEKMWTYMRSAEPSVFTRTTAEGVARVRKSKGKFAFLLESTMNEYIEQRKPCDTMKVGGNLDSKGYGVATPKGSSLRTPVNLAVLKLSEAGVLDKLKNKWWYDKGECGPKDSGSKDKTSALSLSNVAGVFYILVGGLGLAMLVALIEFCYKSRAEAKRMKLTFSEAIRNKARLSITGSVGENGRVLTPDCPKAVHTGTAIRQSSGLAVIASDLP
The description is as above. The settings on record: HEK293 cells stably transfected with human GluR4. The protocol: as §1, §2

Assay [3] has as its system dorsal root ganglion neurons (DRG). As to the kind of experiment: Patch-clamp functional studies on acutely isolated dorsal root ganglion neurons. The class given is cell-based. The settings on record: Rattus norvegicus, Neuron, vs 30 mμ KA. The protocol:
as §1
Functional studies were carried out on HEK293 cells stably transfected with human GluR receptors and on acutely isolated dorsal root ganglion neurons (DRG) using patch-clamp technology (Bleakman et al., 1996, Mol. Pharmacol., 49, 581-585). […]
(In general: Patch clamp records ionic current or voltage across a cell membrane.)

Assay [4] has as its target T3, human GluR1 (Homo sapiens, UniProt P42261).
T3 construct: expressed in transfected cells; host or cells: HEK293
As to the kind of experiment: ATPA selectivity profile in binding studies, displacement of 3[H] AMPA. The settings on record: HEK293 cells stably transfected with human GluR1. The protocol:
as §1
(§3) Cell lines (HEK293 cells) stably transfected with human GluR receptors were employed. Displacement of ^3 [H] AMPA by increasing concentrations of ATPA was used on GluR1-4-expressing cells and ^3 [H] kainate (KA) on GluR5, 6, 7 KA2-expressing cells. Estimated activity (Ki) in nM was as follows.

Assay [5] deals with T4, human GluR5 (Homo sapiens, UniProt P39086).
T4 construct: expressed in transfected cells; host or cells: HEK293
T4 sequence (P39086 31-905 isoform P39086-2 limits assumed): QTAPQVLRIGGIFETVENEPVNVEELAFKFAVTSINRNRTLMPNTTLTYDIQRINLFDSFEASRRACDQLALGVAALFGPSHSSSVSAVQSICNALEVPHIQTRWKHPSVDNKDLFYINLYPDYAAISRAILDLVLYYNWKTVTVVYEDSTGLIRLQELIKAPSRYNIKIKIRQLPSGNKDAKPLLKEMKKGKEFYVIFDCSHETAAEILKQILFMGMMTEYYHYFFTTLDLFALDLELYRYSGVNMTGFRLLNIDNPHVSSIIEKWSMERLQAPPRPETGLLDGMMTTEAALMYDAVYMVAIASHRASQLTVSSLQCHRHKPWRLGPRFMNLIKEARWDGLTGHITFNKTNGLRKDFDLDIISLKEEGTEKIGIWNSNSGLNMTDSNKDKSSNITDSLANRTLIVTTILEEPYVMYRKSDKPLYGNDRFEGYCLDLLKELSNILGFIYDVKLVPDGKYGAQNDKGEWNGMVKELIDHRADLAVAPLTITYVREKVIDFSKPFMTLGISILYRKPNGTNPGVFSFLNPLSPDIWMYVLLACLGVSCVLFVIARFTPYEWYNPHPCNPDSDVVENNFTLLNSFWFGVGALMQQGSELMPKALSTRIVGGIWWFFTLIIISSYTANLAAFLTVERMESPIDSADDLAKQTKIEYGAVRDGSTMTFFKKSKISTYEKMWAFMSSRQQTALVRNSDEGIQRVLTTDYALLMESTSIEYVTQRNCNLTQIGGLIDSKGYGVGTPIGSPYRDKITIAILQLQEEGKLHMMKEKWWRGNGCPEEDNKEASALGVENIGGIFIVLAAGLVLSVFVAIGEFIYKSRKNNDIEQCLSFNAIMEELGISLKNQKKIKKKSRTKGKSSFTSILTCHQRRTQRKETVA
As to the kind of experiment: ATPA selectivity profile in binding studies, displacement of 3[H] kainate. The protocol:
as §1, §2

The test system of a further assay is CA1 pyramidal neurons. Kind of assay: Electrophysiological test of synaptic transmission in the hippocampus. The class given is cell-based. The settings on record: ATPA 1 μM. The source says: As mentioned above, ATPA modulates synaptic transmission in the hippocampus. […] It is further believed that such selective modulation of GluR5 is likely to show benefits in the treatment of cognitive function.

In assay [6] the target is T1, human GluR2. As to the kind of experiment: Electrophysiological (patch-clamp) functional studies on transfected HEK293 cells. The settings on record: vs 100 mμ AMPA. The format is cell-based. How it is done: as §1
(§4) Functional studies were carried out on HEK293 cells stably transfected with human GluR receptors and on acutely isolated dorsal root ganglion neurons (DRG) using patch-clamp technology (Bleakman et al., 1996, Mol. Pharmacol., 49, 581-585).

The target in assay [7] is T2, human GluR4. The assay is described as above. The format is cell-based. The settings on record: vs 100 mμ AMPA. The protocol:
as §1, §4

For assay [8], the target named is T4, human GluR5. The description is as above. The class given is cell-based. The protocol: as §1, §4
In assay [9] the target is T3, human GluR1. The assay is described as above. The class given is cell-based. The settings on record: vs 100 mμ AMPA. The protocol: as §1
(§5) Functional studies were carried out on HEK293 cells stably transfected with human GluR receptors and on acutely isolated dorsal root ganglion neurons (DRG) using patch-clamp technology (Bleakman et al., 1996, Mol. Pharmacol., 49, 581-585). EC50 values (mμ) for ATPA were estimated for GluR1-4 vs 100 mμAMPA, GluR5 vs 100 mμ KA, GluR6 vs 1 mμ KA, and DRG vs 30 mμ KA, with the following results: […]

The target of assay [10] is T5, human GluR6 (Homo sapiens, UniProt Q13002).
T5 construct: expressed in transfected cells; host or cells: HEK293
T5 sequence (Q13002 32-908): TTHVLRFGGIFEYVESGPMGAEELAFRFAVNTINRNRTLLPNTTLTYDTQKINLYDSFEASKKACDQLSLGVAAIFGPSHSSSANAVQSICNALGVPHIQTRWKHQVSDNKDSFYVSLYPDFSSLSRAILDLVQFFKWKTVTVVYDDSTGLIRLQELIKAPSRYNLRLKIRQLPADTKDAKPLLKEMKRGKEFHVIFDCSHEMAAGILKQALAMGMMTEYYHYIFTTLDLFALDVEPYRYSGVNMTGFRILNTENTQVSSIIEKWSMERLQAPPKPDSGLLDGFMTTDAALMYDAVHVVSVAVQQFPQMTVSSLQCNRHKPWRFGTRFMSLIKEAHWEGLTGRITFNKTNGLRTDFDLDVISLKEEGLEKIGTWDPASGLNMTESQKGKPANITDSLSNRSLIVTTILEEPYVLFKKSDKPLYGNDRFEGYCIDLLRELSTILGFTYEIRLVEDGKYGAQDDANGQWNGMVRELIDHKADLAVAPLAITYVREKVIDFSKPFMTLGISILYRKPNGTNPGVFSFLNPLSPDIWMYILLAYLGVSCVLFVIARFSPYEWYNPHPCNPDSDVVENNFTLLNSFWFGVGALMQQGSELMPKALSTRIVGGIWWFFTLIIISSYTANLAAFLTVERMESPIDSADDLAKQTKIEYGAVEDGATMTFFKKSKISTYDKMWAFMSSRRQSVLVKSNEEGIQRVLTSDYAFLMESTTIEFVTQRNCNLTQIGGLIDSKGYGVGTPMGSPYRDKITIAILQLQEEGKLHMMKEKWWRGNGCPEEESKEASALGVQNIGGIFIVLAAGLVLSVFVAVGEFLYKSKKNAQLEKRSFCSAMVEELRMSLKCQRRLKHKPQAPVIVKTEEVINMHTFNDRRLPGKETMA
The description is as above. The class given is cell-based. The settings on record: vs 1 mμ KA. How it is done: as §1, §5

The next assay has as its target T6, human GluR3 (Homo sapiens, UniProt P42263).
T6 construct: expressed in transfected cells; host or cells: HEK293
The description is as above. The settings on record: vs 100 mμ AMPA. The class given is cell-based. The protocol: as §1, §5

The target of the next assay is T7, human GluR7 (Homo sapiens, UniProt Q13003).
T7 construct: expressed in transfected cells; host or cells: HEK293
As to the kind of experiment: ATPA selectivity profile in binding studies, displacement of 3[H] kainate. The settings on record: HEK293 cells stably transfected with human GluR7. The protocol:
as §1, §3

Assay [11] addresses T5, human GluR6. The assay is described as above. The settings on record: HEK293 cells stably transfected with human GluR6. The protocol: as §1, §3
The target of a further assay is T8, human KA2 (Homo sapiens, UniProt Q16478).
T8 construct: expressed in transfected cells; host or cells: HEK293
T8 sequence (Q16478 15-980): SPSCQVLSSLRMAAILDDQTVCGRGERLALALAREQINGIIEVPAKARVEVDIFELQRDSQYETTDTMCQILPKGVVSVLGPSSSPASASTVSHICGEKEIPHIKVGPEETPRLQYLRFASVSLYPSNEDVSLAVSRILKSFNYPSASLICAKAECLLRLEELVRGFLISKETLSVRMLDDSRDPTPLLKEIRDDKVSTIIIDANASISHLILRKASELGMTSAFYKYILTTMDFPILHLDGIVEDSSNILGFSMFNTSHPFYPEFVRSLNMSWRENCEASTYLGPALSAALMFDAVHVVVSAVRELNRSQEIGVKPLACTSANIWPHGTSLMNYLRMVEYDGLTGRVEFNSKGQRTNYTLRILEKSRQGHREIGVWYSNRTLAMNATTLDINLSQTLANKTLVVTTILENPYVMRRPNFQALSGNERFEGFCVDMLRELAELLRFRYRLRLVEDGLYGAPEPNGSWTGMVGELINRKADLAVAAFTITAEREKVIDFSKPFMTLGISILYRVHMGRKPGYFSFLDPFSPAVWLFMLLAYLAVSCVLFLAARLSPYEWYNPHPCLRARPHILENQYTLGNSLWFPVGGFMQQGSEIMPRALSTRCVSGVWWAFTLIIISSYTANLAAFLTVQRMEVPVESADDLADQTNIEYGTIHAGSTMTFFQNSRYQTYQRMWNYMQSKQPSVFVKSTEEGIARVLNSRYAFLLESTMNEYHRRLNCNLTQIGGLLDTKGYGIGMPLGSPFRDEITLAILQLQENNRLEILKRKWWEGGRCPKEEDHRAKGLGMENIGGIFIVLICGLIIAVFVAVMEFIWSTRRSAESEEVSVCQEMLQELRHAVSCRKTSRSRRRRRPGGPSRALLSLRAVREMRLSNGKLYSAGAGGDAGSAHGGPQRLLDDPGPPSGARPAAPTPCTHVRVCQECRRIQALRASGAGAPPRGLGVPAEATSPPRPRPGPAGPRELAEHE
The description is as above. The settings on record: HEK293 cells stably transfected with human KA2. How it is done:
as §1, §3

Some results are limits rather than exact numbers.

T1 sequence (P42262 25-883): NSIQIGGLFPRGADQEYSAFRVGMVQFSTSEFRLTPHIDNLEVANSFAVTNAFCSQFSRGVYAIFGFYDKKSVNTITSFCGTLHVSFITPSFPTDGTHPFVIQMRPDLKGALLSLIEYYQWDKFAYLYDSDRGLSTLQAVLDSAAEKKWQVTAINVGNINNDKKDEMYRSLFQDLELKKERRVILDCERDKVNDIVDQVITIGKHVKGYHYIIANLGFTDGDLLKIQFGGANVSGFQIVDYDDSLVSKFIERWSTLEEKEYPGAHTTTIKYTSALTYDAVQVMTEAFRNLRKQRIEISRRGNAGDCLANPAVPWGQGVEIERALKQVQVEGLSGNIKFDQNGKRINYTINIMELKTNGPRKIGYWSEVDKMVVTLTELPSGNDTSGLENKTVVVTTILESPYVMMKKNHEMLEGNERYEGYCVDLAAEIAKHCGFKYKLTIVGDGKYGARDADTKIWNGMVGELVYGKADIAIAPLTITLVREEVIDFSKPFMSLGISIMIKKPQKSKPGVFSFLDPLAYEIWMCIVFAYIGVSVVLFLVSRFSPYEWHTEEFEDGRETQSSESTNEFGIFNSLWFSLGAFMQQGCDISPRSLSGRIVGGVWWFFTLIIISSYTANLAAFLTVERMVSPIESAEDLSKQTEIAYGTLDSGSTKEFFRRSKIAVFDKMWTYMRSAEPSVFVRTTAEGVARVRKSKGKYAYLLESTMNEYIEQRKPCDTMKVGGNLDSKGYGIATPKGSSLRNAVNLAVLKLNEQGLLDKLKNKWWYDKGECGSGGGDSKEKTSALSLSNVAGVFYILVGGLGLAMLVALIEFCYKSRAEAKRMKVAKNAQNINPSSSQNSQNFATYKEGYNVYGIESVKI
T3 sequence (P42261 19-906): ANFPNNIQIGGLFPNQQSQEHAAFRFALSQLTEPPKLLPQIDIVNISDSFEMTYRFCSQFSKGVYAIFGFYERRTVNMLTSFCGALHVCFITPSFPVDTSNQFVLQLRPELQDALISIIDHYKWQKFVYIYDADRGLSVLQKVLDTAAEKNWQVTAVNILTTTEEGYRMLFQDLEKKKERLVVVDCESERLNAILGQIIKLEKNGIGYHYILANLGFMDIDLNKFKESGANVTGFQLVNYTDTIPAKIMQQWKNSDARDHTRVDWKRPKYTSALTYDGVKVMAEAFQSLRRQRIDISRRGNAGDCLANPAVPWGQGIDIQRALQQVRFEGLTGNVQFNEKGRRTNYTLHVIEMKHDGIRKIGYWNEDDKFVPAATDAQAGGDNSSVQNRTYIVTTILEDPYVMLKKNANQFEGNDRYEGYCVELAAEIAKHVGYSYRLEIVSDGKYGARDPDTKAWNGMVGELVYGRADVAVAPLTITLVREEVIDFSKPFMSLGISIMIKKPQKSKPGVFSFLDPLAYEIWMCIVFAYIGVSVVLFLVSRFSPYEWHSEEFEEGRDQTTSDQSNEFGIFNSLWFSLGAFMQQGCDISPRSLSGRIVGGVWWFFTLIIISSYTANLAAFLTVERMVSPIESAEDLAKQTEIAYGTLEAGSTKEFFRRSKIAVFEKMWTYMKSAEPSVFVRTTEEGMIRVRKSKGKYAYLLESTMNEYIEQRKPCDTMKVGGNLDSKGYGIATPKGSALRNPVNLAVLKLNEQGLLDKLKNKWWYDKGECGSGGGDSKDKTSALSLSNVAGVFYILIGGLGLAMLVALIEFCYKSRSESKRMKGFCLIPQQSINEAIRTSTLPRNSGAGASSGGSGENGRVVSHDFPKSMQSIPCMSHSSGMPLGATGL

Take `CC(C)(C)c1onc(O)c1CC(N)C(=O)O` (centres unmarked) [ATPA, 2-amino-3-(3-hydroxy-5-tert-butylisoxazol-4-yl)propanoic acid]: the “Estimated activity (Ki) GluR2” value at human GluR2 [1] was 38.616 µM. At human GluR4 [2], the “Estimated activity (Ki) GluR4” value was 15.747 µM. In addition, the EC50 (in general, the midpoint of the concentration-response curve) in [3] was 0.56 µM; on human GluR2 [6], above 300 µM; on human GluR4 [7], above 300 µM; on human GluR5 [8] (HEK293 cells, human GluR5, patch-clamp, vs 100 mμ KA), 4 ± 0.7 µM; at human GluR1 [9], above 300 µM; on human GluR6 [10] it was above 300 µM. At human GluR3, the EC50 was above 300 µM. Moreover, the “Estimated activity (Ki) GluR1” value at human GluR1 [4] was 17.59 µM. Also, at human GluR5 [5] (HEK293 cells stably transfected with human GluR5, displacement of 3[H] kainate), the “Estimated activity (Ki) GluR5” value is 0.0031 µM. Besides, at human GluR5 [5] (binding studies, GluR5 vs other human AMPA and kainate receptors), the “fold less potent on other human AMPA and kainate receptors than on human GluR5 in binding studies” value is recorded as “more than 1000 fold”. In addition, the “effect on synaptic inhibition onto CA1 pyramidal neurons” value in the assay on CA1 pyramidal neurons is “reduces synaptic inhibition onto CA1 pyramidal neurons”. The “fold less potent on other human AMPA and kainate receptors than on human GluR5 and rat DRG neurons in electrophysiological studies” value on human GluR5 [8] (electrophysiological studies, GluR5 and rat DRG neurons vs other human AMPA and kainate receptors) is recorded as 100 fold. The “Estimated activity (Ki) GluR7” value at human GluR7 was 14.319 µM. In addition, the “Estimated activity (Ki) GluR6” value on human GluR6 [11] was above 1000 µM. Further, the “Estimated activity (Ki) KA2” value on human KA2 is 38.832 µM.
